Data set [1] deals with T1, human URAT1 (Homo sapiens, UniProt Q96S37).
T1 construct: expressed in transfected cells; host or cells: HEK293 cells transduced with recombinant baculovirus (CMV promoter)
T1 sequence (Q96S37 1-553): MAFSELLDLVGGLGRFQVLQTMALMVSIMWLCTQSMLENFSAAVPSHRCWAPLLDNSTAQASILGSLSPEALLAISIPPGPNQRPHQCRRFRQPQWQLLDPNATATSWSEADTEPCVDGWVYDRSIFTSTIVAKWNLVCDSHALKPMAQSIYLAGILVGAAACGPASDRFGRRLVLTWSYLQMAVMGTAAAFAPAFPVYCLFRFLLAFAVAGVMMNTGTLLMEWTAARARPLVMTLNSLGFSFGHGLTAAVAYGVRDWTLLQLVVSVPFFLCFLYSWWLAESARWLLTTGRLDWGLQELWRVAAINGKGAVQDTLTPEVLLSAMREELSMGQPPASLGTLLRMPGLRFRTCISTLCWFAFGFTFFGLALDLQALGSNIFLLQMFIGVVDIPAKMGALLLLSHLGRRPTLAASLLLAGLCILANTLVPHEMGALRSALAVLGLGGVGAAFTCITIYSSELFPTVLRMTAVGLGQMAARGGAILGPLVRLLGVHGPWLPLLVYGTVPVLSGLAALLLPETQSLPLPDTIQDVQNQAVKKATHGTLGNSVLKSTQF
The data set is described as follows: Screening of cellular PFAS accumulation in URAT1-transfected vs control-transfected HEK293 cells (PFAS mixture). Format: cell-based. The following applies: yes/no as identified in vitro in this study. From the text: (§1) The recombinant baculoviruses that contain the cDNA of human transporters OAT4 and URAT1 downstream of a cytomegalovirus (CMV) promotor were generated as previously described (Smeets et al. [2020]). As a negative control, baculovirus containing the gene for enhanced yellow fluorescence protein (eYFP) was produced similarly. Moreover, transduction of HEK293 cells and uptake assays were essentially performed as previously described (Smeets et al. [2020]). The culture medium was removed and cells were washed with buffer (HBSS plus 10 mM HEPES, pH 7.4). Uptake was initiated by replacing this solution with 150 µL of fresh transport buffer (HBSS (Life Technologies Invitrogen (Carlsbad, CA, USA))-HEPES (Sigma-Aldrich), pH 7.4) supplemented with the PFASs for 10 min. To terminate the reaction, transport buffer was replaced with 400 µL ice-cold HBSS-HEPES buffer containing 0.5% BSA (m/v; Roche Diagnostics GmbH (Mannheim, Germany)), after which the cells were washed twice with ice-cold HBSS-HEPES. Cellular PFAS concentrations were determined based on the method described by Rosenmai et al. ([2018]). Briefly, cells were solubilised in 250 µL lysis buffer and cell lysates were stored in Eppendorf tubes at − 80 °C and defrozen when needed for LC–MS analysis and for quantification of the protein concentration.
(§2) To 50 μL cell lysate, 850 μL methanol (Actu-All Chemicals, Oss, The Netherlands) containing internal standards (^13C4-PFHpA, ^13C4-PFOA, ^13C5-PFNA, ^13C2-PFDA, ^13C3-PFBS, ^18O2-PFHxS and ^13C4-PFOS (Wellington Laboratories, Canada) was added. These dilutions were vortexed well before centrifugation at maximum speed for 10 min at 4 °C. PFAS concentrations in the supernatant were determined using LC–MS/MS analysis. If required, samples were further diluted with methanol and containing internal standards. LC–MS/MS analysis was based on a Shimadzu UHPLC system containing: 2 pumps (LC 20AD xr); column oven (Shimadzu CTO-20AC); pump switch (Shimadzu FCV-11AL); degasser (Shimadzu DGU-20A3); and sample tray holder (Shimadzu SIL-20 AC XR model) (Shimadzu Corporation, Kyoto, Japan). An Acquity BEH-C18 analytical column (50 × 2.1 mm i.d., 1.7 μm, Waters, Milford, MA, USA) was used to separate the PFASs at a column temperature of 35 °C. In addition, a symmetry C18 analytical column (50 × 2.1 mm i.d., 5 µm, Waters, Milford, MA, USA) was used as a guard column, placed between the pump and the injector valve to isolate and delay interferences out of the LC system. The mobile phase consisted of 2 mM ammonium acetate (Merck Millipore, Darmstadt, Germany) in Milli-Q water (prepared using a Milli-Q system with a resistivity of at least 18.2 MΩ cm^−1 (Merck Millipore)) (mobile phase A) and Acetonitrile ULC/MS grade (Actu-All Chemicals, Oss, The Netherlands) (mobile phase B). The injection volume used was 20 μL. The chromatographic gradient was operated at a flow rate of 0.3 mL min^−1 starting from 25% mobile phase B in the first 0.1 min, a linear increase to 100% B in 6 min with a final hold of 2.5 min. The gradient was returned to 25% B within 0.1 min for 3.9 min to equilibrate before the next injection, resulting in a total run of 12.5 min.
(§3) Cellular PFAS content was normalised to cellular protein. To that end, from each cell lysate, 25 µL was used to determine the protein concentration (technical duplicate) using the Pierce BCA Protein Assay Kit (Thermo Scientific, Waltham, MA). First, samples were diluted two times with lysis buffer directly in a 96-wells plate (PS, F-bottom, clear; Greiner Bio-One, Alphen aan de Rijn, The Netherlands), and in each plate, a BSA standard curve (0.05–2 mg mL^−1 in lysis buffer) was included allowing protein quantification of the samples. The manufacturer’s protocol was followed for the subsequent steps and absorbance was measured using a microplate reader (Synergy™ HT BioTek, Winooski, VT) at 562 nm. […]

Data set [2] addresses T2, human OAT4 (Homo sapiens, UniProt Q9NSA0).
T2 construct: expressed in transfected cells; host or cells: HEK293 cells transduced with recombinant baculovirus (CMV promoter)
T2 sequence (Q9NSA0 1-550): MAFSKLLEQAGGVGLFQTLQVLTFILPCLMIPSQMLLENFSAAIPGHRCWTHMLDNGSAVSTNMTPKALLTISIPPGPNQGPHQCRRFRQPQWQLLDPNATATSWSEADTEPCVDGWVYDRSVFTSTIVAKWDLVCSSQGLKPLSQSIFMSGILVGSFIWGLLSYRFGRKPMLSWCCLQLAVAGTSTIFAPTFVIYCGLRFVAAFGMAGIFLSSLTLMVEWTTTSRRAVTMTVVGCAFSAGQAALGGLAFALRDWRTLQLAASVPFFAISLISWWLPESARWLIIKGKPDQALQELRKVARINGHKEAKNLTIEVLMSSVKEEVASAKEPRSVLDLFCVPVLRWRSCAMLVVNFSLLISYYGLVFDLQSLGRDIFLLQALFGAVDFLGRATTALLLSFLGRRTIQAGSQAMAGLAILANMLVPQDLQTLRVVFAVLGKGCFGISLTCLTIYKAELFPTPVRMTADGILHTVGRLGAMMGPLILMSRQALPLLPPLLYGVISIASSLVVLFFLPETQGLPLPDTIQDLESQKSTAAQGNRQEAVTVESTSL
As to the kind of experiment: Screening of cellular PFAS accumulation in OAT4-transfected vs control-transfected HEK293 cells (PFAS mixture). The data set is classed as cell-based. The following applies: for Transport by OAT4 (cellular PFAS level in OAT4-transfected vs control-transfected cells; substantial = at least twofold higher): PFAS mixture, each 1 µM, 10 min; for OAT4 substrate: yes/no as identified in vitro in this study.
From the text: as §1, §2, §3

In data set [3] the target is T2, human OAT4. The data set is described as follows: OAT4-mediated cellular uptake kinetics (Michaelis–Menten) in OAT4-transfected vs control-transfected HEK293 cells. The following applies: OAT4-transfected minus control-transfected HEK293 cells, 1 min exposure, 1-300 µM; best-fit value (standard error). Format: cell-based.
Data set [4] deals with albumin. The following applies: ref Allendorf et al. (2019); cited from earlier work.
The subject of data set [5] is URAT1. Also noted: method as in Iwanaga et al. 2005; Morrissey et al. 2012. The following applies: probe substrate; ref Iwanaga et al. 2005; Morrissey et al. 2012; cited from earlier work.
The conditions of data set [6]: (average) serum half-life; ref Xu et al. (2020) for PFHpA; Olsen et al. (2007), Li et al. (2018), Xu et al. (2020) for PFOA, PFHxS, PFOS; Olsen et al. (2009) for PFBS; cited from earlier work.
The subject of data set [7] is URAT1. Also noted: method as in Yang et al. 2010. Conditions: URAT1-expressing HEK293 cells; ref Yang et al. 2010; cited from earlier work.
In data set [8] the test system is OAT4. Also noted: method as in Yang et al. 2010. Conditions: OAT4-expressing CHO cells; ref Yang et al. 2010; cited from earlier work.
Substrate in data set [9]: O=S(=O)(O)C(F)(F)C(F)(F)C(F)(F)C(F)(F)C(F)(F)C(F)(F)F
As to the kind of experiment: OAT4-mediated cellular uptake kinetics (Michaelis–Menten) in OAT4-transfected vs control-transfected HEK293 cells. The following applies: other: OAT4-transfected minus control-transfected HEK293 cells, 1 min exposure, 1-300 µM; best-fit value (standard error); pH 7.4. Format: cell-based, human.

Substrate in data set [10]: O=C(O)C(F)(F)C(F)(F)C(F)(F)C(F)(F)C(F)(F)C(F)(F)F
The data set is described as above. Format: cell-based, human. The following applies: other: OAT4-transfected minus control-transfected HEK293 cells, 1 min exposure, 1-300 µM; best-fit value (standard error); pH 7.4.

Substrate in data set [11]: O=C(O)C(F)(F)C(F)(F)C(F)(F)C(F)(F)C(F)(F)C(F)(F)C(F)(F)F
The data set is described as above. The data set is classed as cell-based, human. The following applies: other: OAT4-transfected minus control-transfected HEK293 cells, 1 min exposure, 1-300 µM; best-fit value (standard error); pH 7.4.

Substrate in data set [12]: O=S(=O)(O)C(F)(F)C(F)(F)C(F)(F)C(F)(F)C(F)(F)C(F)(F)C(F)(F)C(F)(F)F
The data set is described as follows: cells, lysate or membranes. The following applies: other: OAT4-transfected minus control-transfected HEK293 cells, 1 min exposure, 1-300 µM; best-fit value (standard error); pH 7.4.

Substrate in data set [13]: O=C(O)C(F)(F)C(F)(F)C(F)(F)C(F)(F)C(F)(F)C(F)(F)C(F)(F)C(F)(F)F
As to the kind of experiment: cells, lysate or membranes. The following applies: other: OAT4-transfected minus control-transfected HEK293 cells, 1 min exposure, 1-300 µM; best-fit value (standard error); pH 7.4.

Substrate in data set [14]: O=C(O)C(F)(F)C(F)(F)C(F)(F)C(F)(F)C(F)(F)C(F)(F)C(F)(F)C(F)(F)C(F)(F)F
The data set is described as follows: cells, lysate or membranes. Conditions: other: OAT4-transfected minus control-transfected HEK293 cells, 1 min exposure, 1-300 µM; best-fit value (standard error); pH 7.4.

“Also recorded” adds a separate entry of the source. Marks after values point to notes of the source that are not given here.

`O=C(O)C(F)(F)C(F)(F)C(F)(F)C(F)(F)C(F)(F)C(F)(F)C(F)(F)C(F)(F)F` [PFNA, perfluorononanoic acid]: the URAT1 substrate entry in data set [1] is “No”. In addition, in data set [2], the “Transport by OAT4 (cellular PFAS level in OAT4-transfected vs control-transfected cells; substantial = at least twofold higher)” value was “substantial transport; also recorded: more than twofold increase” and the OAT4 substrate entry is “Yes”. Besides, the “Apparent Vmax” value in data set [3] worked out at 8.5 nmol min^−1 mg protein^−1. For the same molecule, the “Reported albumin/water partition coefficients” value in data set [4] was 4.3 L/kg.
Consider `O=c1[nH]c(=O)c2[nH]c(=O)[nH]c2[nH]1` [Uric acid, uric acid], for which, in data set [5], the URAT1 substrate result is recorded as “Yes”.
As to `O=S(=O)(O)C(F)(F)C(F)(F)C(F)(F)C(F)(F)C(F)(F)C(F)(F)C(F)(F)C(F)(F)F` [PFOS, perfluorooctane sulfonate], the URAT1 substrate result in data set [1] is “No”. Besides, in data set [2], the “Transport by OAT4 (cellular PFAS level in OAT4-transfected vs control-transfected cells; substantial = at least twofold higher)” value is listed as “substantial transport; also recorded: more than twofold increase” and the OAT4 substrate entry is on record as “Yes”. In addition, the “Apparent Vmax” value in data set [3] came to 2.2 nmol min^−1 mg protein^−1. The “Reported half-life in humans” value in data set [6] was 1.8–5.4^c years. In [4], the “Reported albumin/water partition coefficients” value was 4.7 L/kg.
As for `O=C(O)C(F)(F)C(F)(F)C(F)(F)C(F)(F)C(F)(F)C(F)(F)C(F)(F)F` [PFOA, perfluorooctanoic acid], in data set [1], the URAT1 substrate result is “No”. For the same molecule, in data set [2], the “Transport by OAT4 (cellular PFAS level in OAT4-transfected vs control-transfected cells; substantial = at least twofold higher)” value is on record as “substantial transport; also recorded: more than twofold increase” and the OAT4 substrate result was “Yes”. Moreover, in data set [7], the Km was 64 µM and the Vmax was 0.32 nmol min^−1 mg protein^−1. Besides, in data set [8], the Km was 310 µM and the Vmax is 37 nmol min^−1 mg protein^−1. Also, in [6], the “Reported half-life in humans” value was 1.8–3.8^c years. The “Reported albumin/water partition coefficients” value in [4] was 4.2 L/kg.

B1: human OAT4 (Homo sapiens) (protein)
chain: T2 sequence (Q9NSA0 1-550)
notes: expressed in transfected cells; host or cells: HEK293 cells transduced with recombinant baculovirus (CMV promoter)
With B1, the Km in data set [9] was 92 (33) µM; in data set [10], 60 (15) µM; in data set [11], 47 (15) µM; in data set [12], 48 (24) µM; in [13], 58 (15) µM; in data set [14], 39 (15) µM. Further, the Vmax turned out to be 0.0073 µmol/min/mg in [9]; 0.0045 µmol/min/mg in data set [10]; 0.0045 µmol/min/mg in data set [11]; 0.0022 µmol/min/mg in data set [12]; 0.0085 µmol/min/mg in [13]; 0.006 µmol/min/mg in [14]. Besides, the Vmax/Km in data set [9] worked out at 79 µL min^−1 mg protein^−1; in data set [10] it was 75 µL min^−1 mg protein^−1; in [11], 96 µL min^−1 mg protein^−1; in [12] it was 46 µL min^−1 mg protein^−1; in [13], 147 µL min^−1 mg protein^−1; in [14], 154 µL min^−1 mg protein^−1.

The record behind these values is publication PMC9968691, “Perfluoroalkyl substances (PFASs) are substrates of the renal human organic anion transporter 4 (OAT4)” (Archives of Toxicology, 2022).
